Laboratory results published in US20050192244A1, “Histamine release inhibitor” (priority 2002, published 2005).

Tested on: mast cells
Assay: Inhibitory effect on histamine release from rat peritoneal mast cells stimulated with compound 48/80 (histamine by HPLC, diazotation method)
Type: cell-based
Settings: histamine release induced by compound 48/80, mean of three measurements; for inhibition at 10 µg/mL: sample concentration 10 μg/ml
Text: (1) With regard to the following substances, an inhibitory effect on type I allergic reaction was investigated by investigating an inhibitory effect on histamine release from mast cells. • <1> Adenosine • <2> Guanosine • <3> Cytidine • <4> Uridine • <5> Adenosine monophosphate (AMP) • <6> Adenosine diphosphate (ADP) • <7> Adenosine triphosphate (ATP) • <8> Adenosine derived from Phellinus linteus (described later as Compound A) • <9> N-hydroxy-N-methyl-adenosine derived from Phellinus linteus (described later as Compound B) • <10> A commercially available histamine inhibitor (brand name: Intal, major component: disodium cromoglycate, manufacturer: Fujisawa Pharmaceutical Co., Ltd.)
(a) For a test animal, a male Wister rat (at 6 to 8 weeks of age) was used.
After a rat was sacrificed by exsanguination under anesthesia with ether, 15 ml of Tyrode Buffer was injected into the peritoneal cavity of the rat and intraperitoneal cavity fluid was recovered. Ten ml of Tyrode Buffer was further injected into the peritoneal cavity of the rat. Intraperitoneal cavity fluid was further recovered and combined with the intraperitoneal fluid recovered before. This intraperitoneal fluid was centrifuged at 800 rpm for 10 minutes at 4° C. and the supernatant was removed and filtrated.
Further, cell suspension, to which Tyrode Buffer was added, was centrifuged at 800 rpm for 10 minutes at 4° C., the supernatant was removed and the cells were homogenized. This cell suspension was measured with an erythrocytometer, and prepared to be 8×10^6 cells/ml for use.
The cell suspension (370 μl) dispensed into a 1.2 ml-microtube was pre-incubated in a water bath at 37° C.
Ten minutes later, 20 μl of sample prepared at each concentration was added.
Further, 10 minutes later, 10 μl of compound 48/80 (a mast cell stimulation agent; manufactured by Wako Pure Chemical Industries, Ltd.) (0.5 μg/ml), which is an allergy inducer, was added.
Fifteen minutes later, the reaction was terminated on ice.
Further, to remove the mast cells, centrifugation was carried out at 13,000 rpm for 15 minutes at 4° C. and the supernatant was recovered.
This supernatant was used as a sample for diazotation in HPLC analysis.
An equal amount of 20 mM p-nitroaniline hydrochloric acid solution and 200 mM sodium nitrite aqueous solution were mixed well (diazo reagent).
To 10 μl of the diazo reagent, 20 μl of the foregoing sample for (histamine) diazotation was added and mixed well by using a vortex mixer.
Further, 30 μl of sodium carbonate ethanol solution was added and mixed well by using a vortex mixer.
This solution (20 μl) was used in HPLC analysis.
(c) The analysis of histamine was carried out by the diazotation method (Specific Determination of Histamine in Fish by High-performance Liquid Chromatography after Diazo Coupling: Biosci. Biotech. Biochem. 59 (7) 1208-1210 (1995)).
(4) The results of the inhibitory effects on histamine release from mast cells of a specified concentration of <1> adenosine, <2> guanosine, <3> cytidine, <4> uridine, <5> adenosine monophosphate (AMP), <6> adenosine diphosphate (ADP), <7> adenosine triphosphate (ATP) (<1> to <7> substances were from Wako Pure Chemical Industries, Ltd.), <8> adenosine derived from Phellinus linteus (described later as Compound A), <9> N-hydroxy-N-methyl-adenosine derived from Phellinus linteus (described later as Compound B), and <10> a commercially available histamine inhibitor (brand name: Intal, major component: sodium cromoglycate, manufacturer: Fujisawa Pharmaceutical Co., Ltd.) are shown in Table 2. The inhibition ratios shown in Table 2 are mean values of three measurement values in each case.
The value of inhibition ratio was calculated from the following calculation formula.
Calculation Formula: (1−(peak integral value of sample)/(peak integral value of control))×100

[1] = Rattus norvegicus, Mast cell, sample concentration 5 μg/ml, read-out: Inhibition Ratio (%)
[2] = Rattus norvegicus, Mast cell, read-out: Inhibition Ratio (%)

Nc1ncnc2c1ncn2[C@@H]1O[C@H](CO)[C@@H](O)[C@H]1O [Adenosine derived from Phellinus linteus, adenosine]
inhibition at 5 µg/mL [1]: 41.5%

Nc1ncnc2c1ncn2[C@@H]1O[C@H](COP(=O)(O)OP(=O)(O)O)[C@@H](O)[C@H]1O [Adenosine diphosphate, adenosine 5′-diphosphate]
inhibition at 10 µg/mL [2]: 47.8%

Nc1ncnc2c1ncn2[C@@H]1O[C@H](COP(=O)(O)O)[C@@H](O)[C@H]1O [Adenosine monophosphate, adenosine 5′-monophosphate]
inhibition at 10 µg/mL [2]: 54.9%

Nc1ncnc2c1ncn2[C@@H]1O[C@H](COP(=O)(O)OP(=O)(O)OP(=O)(O)O)[C@@H](O)[C@H]1O [Adenosine triphosphate, adenosine 5′-triphosphate]
inhibition at 10 µg/mL [2]: 40%

Nc1ncnc2c1ncn2[C@@H]1O[C@H](CO)[C@@H](O)[C@H]1O [Adenosine]
inhibition at 1 µg/mL (Rattus norvegicus, Mast cell, sample concentration 1 μg/ml, read-out: Inhibition Ratio (%)): 27.5% | inhibition at 20 µg/mL (Rattus norvegicus, Mast cell, sample concentration 20 μg/ml, read-out: Inhibition Ratio (%)): 59.3% | inhibition at 50 µg/mL (Rattus norvegicus, Mast cell, sample concentration 50 μg/ml, read-out: Inhibition Ratio (%)): 74.7% | Inhibition Ratio (%) (sample concentration 5 μg/ml): 43.8%

Nc1ccn([C@@H]2O[C@H](CO)[C@@H](O)[C@H]2O)c(=O)n1 [Cytidine]
inhibition at 5 µg/mL [1]: 38%

Nc1nc2c(ncn2[C@@H]2O[C@H](CO)[C@@H](O)[C@H]2O)c(=O)[nH]1 [Guanosine]
inhibition at 5 µg/mL [1]: 39%

CN(O)c1ncnc2c1ncn2[C@@H]1O[C@H](CO)[C@@H](O)[C@H]1O [N-hydroxy-N-methyl-adenosine]
inhibition at 5 µg/mL [1]: 27%

O=c1ccn([C@@H]2O[C@H](CO)[C@@H](O)[C@H]2O)c(=O)[nH]1 [Uridine]
inhibition at 5 µg/mL [1]: 34%
